Measurements reported in US20250295639A1, “METHODS FOR TREATING HEART DISEASES” (Cytokinetics, Incorporated, priority 2024, published 2025).

Legend:
Assay type in all cases: in vivo, human
[1] = test system: patients with nonobstructive hypertrophic cardiomyopathy (nHCM); experiment: FOREST-HCM open-label extension, 36-week analysis in nHCM
Source text: An open-label extension clinical trial of aficamten in patients with symptomatic oHCM was initiated and was described as Example 3b in WO 2024/031016 and in U.S. Patent Publication US-2024-0115554-A1, the disclosures of which are incorporated by reference herein. The treatment duration is anticipated to be multiple years. The primary objective of the trial is to determine the safety and tolerability of aficamten over a 5-year period. Safety and efficacy of aficamten in patients with nonobstructive hypertrophic cardiomyopathy (nHCM). Thirty-four patients were enrolled (mean age±SD 57.2±15.3 years, 62% women). At baseline, patients were symptomatic (41% NYHA class III) with median (IQR) NT-proBNP and hs-cTnI of […] (735, 1735) and 24.9 ng/L (9.7, 46.4), respectively. By the end of the titration period (week 6), 3 (8.8%), 3 (8.8%), 6 (17.6%) and 22 (64.7%) patients received doses of 5, 10, 15, and 20 mg daily, respectively. At baseline, LVEF (mean±SD) was 70%±6.1; over 36-weeks, there was a modest reduction of 4.3%±5.2 (p<0.0001). NYHA class improved by ≥1 class in 27 (79.4%) patients, including 20 (58.8%) were asymptomatic (NYHA class I) by week 36. The mean KCCQ-CSS improved by 13.8±12.52 points relative to baseline, with 24/31 (77.4%) patients reporting improvements of ≥5 points. […] Most patients achieved the highest available dose while maintaining normal LVEF.

[2] = test system: patients with symptomatic oHCM; experiment: SEQUOIA-HCM: eligibility for septal reduction therapy (SRT); details: aficamten (32 eligible at entry)
Source text: Eligibility for Septal Reduction Therapy (SRT). At study entry, 61 (22%) patients with oHCM were eligible for SRT based on guideline criteria (LV outflow gradient ≥50 mmHg at rest or Valsalva and NYHA class III or IV), of which 32 (23%) were assigned to aficamten and 29 (20%) to placebo. By week 12, 32 (100%) patients treated with aficamten were no longer guideline-eligible for SRT vs. 7 (24%) patients treated with placebo (P<0.001). At week 24, 28 (88%) patients treated with aficamten were no longer guideline-eligible for SRT vs. 15 (52%) on placebo (P<0.002).

[3] = test system: patients with symptomatic oHCM; experiment: SEQUOIA-HCM: patient-reported health status KCCQ-OSS and SAQ-SS
Description: Effect of Aficamten on Patient-Reported Health Status in Obstructive Hypertrophic Cardiomyopathy. Participants were randomized to aficamten or placebo with standard-of-care therapy for 24 weeks followed by a 4-week washout period. The Kansas City Cardiomyopathy Questionnaire (KCCQ) and Seattle Angina Questionnaire (SAQ) were administered at each study visit. Changes in mean KCCQ Overall Summary score (KCCQ-OSS) and SAQ Summary score (SAQ-SS) from baseline to week 24 were compared by treatment group using linear regression, adjusting for randomization strata. Proportions of patients with clinically important changes were compared.

[4] = test system: patients with symptomatic oHCM; experiment: SEQUOIA-HCM secondary analysis: global remodelling response across five domains
Description: SEQUOIA-HCM recruited patients with symptomatic oHCM (New York Heart Association [NYHA]≥class 2, baseline pVO2 of ≤90% of predicted, respiratory exchange ratio [RER] of ≥1.05). Patients were randomized 1:1 to aficamten (5-20 mg daily) or placebo, and doses were adjusted during the first 6 weeks to achieve relief from obstruction (LVOT-G<30 mmHg) while maintaining left ventricular ejection fraction (LVEF) ≥50%, for 24 weeks. In this secondary analysis, remodelling response was assessed across five domains including: 1) left atrial volume index (LAVI) graded as normal (16-34 mL/m^2), mild (35-41 mL/m^2), moderate (42-48 mL/m^2), severe enlargement (>48 mL/m^2); 2) presence of left ventricular hypertrophy (LVH) with strain pattern on electrocardiogram (EKG) assessed by core lab, 3) Hyperdynamic (≥72) LVEF by core lab; 4)N-terminal brain natriuretic peptide (NT-proBNP) improvement of ≥50%, and; and 5) decrease of maximal wall thickness (MWT) ≥1.5 mm.

[5] = aficamten arm, week 28 compared with week 24

SMILES: CCc1nc(-c2ccc3c(c2)CC[C@H]3NC(=O)c2cnn(C)c2)no1 [aficamten, (R)—N-(5-(5-ethyl-1,2,4-oxadiazol-3-yl)-2,3-dihydro-1H-inden-1-yl)-1-methyl-1H-pyrazole-4-carboxamide]
- patients reporting KCCQ-CSS improvements of ≥5 points ([1]; 24/31 patients): 77.4%
- patients asymptomatic (NYHA class I) ([1]; by week 36): 58.8%
- drug discontinuations due to adverse events ([1]; in vivo): no drug discontinuations due to adverse events
- patients with LVEF<50% ([1]; in vivo): 5.9%
- reduction in LVEF (mean±SD) ([1]; over 36-weeks): 4.3%
- tolerability ([1]; over the study period): well tolerated
- NT-proBNP median change from baseline ([1]; week 36): -665.5 pg/mL
- hs-cTnI median change from baseline ([1]; week 36): -2.7 ng/L
- mean KCCQ-CSS improvement relative to baseline ([1]; week 36): 13.8±12.52 points
- patients with NYHA class improved by ≥1 class ([1]; week 36): 79.4%
- SRT-eligible patients no longer guideline-eligible for SRT ([2]; week 12): 100%
- SRT-eligible patients no longer guideline-eligible for SRT ([2]; week 24): 88%
- change in KCCQ-OSS after treatment withdrawal [3, 5]: −16.2±19.0
- change in SAQ-OSS after treatment withdrawal [3, 5]: −17.4±21.4
- 24-week improvement in KCCQ-OSS (mean±SD) ([3]; aficamten group): 13.3±16.3
- 24-week improvement in SAQ-SS (mean±SD) ([3]; aficamten group): 11.6±17.4
- patients with very large improvements (≥20 points) in KCCQ-OSS ([3]; aficamten-treated, week 24): 29.7%
- patients with very large improvements (≥20 points) in SAQ-SS ([3]; aficamten-treated, week 24): 31.2%
- heterogeneity of treatment benefit (KCCQ-OS, SAQ-SS) across subgroups incl. beta-blocker use at baseline ([3]; human, in vivo): No heterogeneity of treatment benefit
- SAQ-SS improvement with aficamten ([3]; subgroup baseline SAQ-SS 75-100): 4.2
- greater change with aficamten in SAQ-SS ([3]; subgroup baseline SAQ-SS<50): 15.6 points
- very large improvement in KCCQ-OSS, NNT ([3]; vs placebo): 5.8
- very large improvement in SAQ-SS, NNT ([3]; vs placebo): 5.8
- patients with beneficial remodelling in at least one of five domains ([4]; 142 aficamten treated patients): 84%
- patients with decrease by ≥50% in NT-proBNP ([4]; aficamten): 81.7%
- patients with improvement in MWT (decrease ≥1.5 mm) ([4]; aficamten): 47.9%
- patients with resolution of hyperdynamic LVEF ([4]; aficamten): 35.2%
- reduction in prevalence of LVH with strain pattern on EKG, patients ([4]; aficamten): 19.0%
- patients with improvement by one category in LAVI ([4]; among patients with abnormal LAVI (>34 mL/m^2) at baseline, 44/94): 46.8%
- number needed to treat to achieve beneficial remodelling ([4]; vs placebo): 2.2
